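1) Cells in 96-well plates. 2) Compound, 48 h, 5 concentrations. 3) Linear interpolation between surrounding doses. 4) Unreached endpoint = highest concentration. GI50 is the concentration that inhibits growth by half. TGI denotes the concentration required for complete inhibition of growth.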
Key:
Test in all cases: NCI-60 cell line screen, 48 h
786-0 renal = test system: 786-0 renal
A498 renal = test system: A498 renal
A549 NSCLC = test system: A549 NSCLC
ACHN renal = test system: ACHN renal
BT-549 breast = test system: BT-549 breast
CAKI-1 renal = test system: CAKI-1 renal
CCRF-CEM leukemia = test system: CCRF-CEM leukemia
COLO 205 colon = test system: COLO 205 colon
DU-145 prostate = test system: DU-145 prostate
EKVX NSCLC = test system: EKVX NSCLC
HCC-2998 colon = test system: HCC-2998 colon
HCT-116 colon = test system: HCT-116 colon
HCT-15 colon = test system: HCT-15 colon
HL-60(TB) leukemia = test system: HL-60(TB) leukemia
HOP-62 NSCLC = test system: HOP-62 NSCLC
HOP-92 NSCLC = test system: HOP-92 NSCLC
HS 578T breast = test system: HS 578T breast
HT29 colon = test system: HT29 colon
IGROV1 ovarian = test system: IGROV1 ovarian
K-562 leukemia = test system: K-562 leukemia
KM12 colon = test system: KM12 colon
LOX IMVI melanoma = test system: LOX IMVI melanoma
M14 melanoma = test system: M14 melanoma
MALME-3M melanoma = test system: MALME-3M melanoma
MCF7 breast = test system: MCF7 breast
MDA-MB-231 breast = test system: MDA-MB-231 breast
MDA-MB-435 = test system: MDA-MB-435
MOLT-4 leukemia = test system: MOLT-4 leukemia
NCI-H226 lung = test system: NCI-H226 lung
NCI-H23 lung = test system: NCI-H23 lung
NCI-H460 lung = test system: NCI-H460 lung
NCI-H522 lung = test system: NCI-H522 lung
NCI/ADR-RES ovarian = test system: NCI/ADR-RES ovarian
OVCAR-4 ovarian = test system: OVCAR-4 ovarian
OVCAR-5 ovarian = test system: OVCAR-5 ovarian
OVCAR-8 ovarian = test system: OVCAR-8 ovarian
PC-3 prostate = test system: PC-3 prostate
RPMI-8226 leukemia = test system: RPMI-8226 leukemia
RXF 393 renal = test system: RXF 393 renal
SF-268 CNS = test system: SF-268 CNS
SF-295 CNS = test system: SF-295 CNS
SF-539 CNS = test system: SF-539 CNS
SK-MEL-2 melanoma = test system: SK-MEL-2 melanoma
SK-MEL-28 melanoma = test system: SK-MEL-28 melanoma
SK-MEL-5 melanoma = test system: SK-MEL-5 melanoma
SK-OV-3 ovarian = test system: SK-OV-3 ovarian
SN12C renal = test system: SN12C renal
SNB-19 CNS = test system: SNB-19 CNS
SNB-75 CNS = test system: SNB-75 CNS
SR leukemia = test system: SR leukemia
SW-620 colon = test system: SW-620 colon
T-47D breast = test system: T-47D breast
TK-10 renal = test system: TK-10 renal
U251 CNS = test system: U251 CNS
UACC-257 melanoma = test system: UACC-257 melanoma
UACC-62 melanoma = test system: UACC-62 melanoma
UO-31 renal = test system: UO-31 renal

CC(Nc1c(C#N)cnc2ccc(-c3cnc(N)nc3)cc12)c1ccccc1 (stereo not drawn)
GI50 (786-0 renal): 1.36 µM
TGI (786-0 renal): 10.2 µM
GI50 (A498 renal): 0.199 µM
TGI (A498 renal): 1.04 µM
GI50 (A549 NSCLC): 1.03 µM
TGI (A549 NSCLC): 11.7 µM
GI50 (ACHN renal): 0.785 µM
TGI (ACHN renal): 13.2 µM
GI50 (BT-549 breast): 0.41 µM
TGI (BT-549 breast): 4.51 µM
GI50 (CAKI-1 renal): 0.441 µM
TGI (CAKI-1 renal): 4.28 µM
GI50 (CCRF-CEM leukemia): 1 µM
TGI (CCRF-CEM leukemia): 40.2 µM
GI50 (COLO 205 colon): 1.78 µM
TGI (COLO 205 colon): 6.82 µM
GI50 (DU-145 prostate): 0.796 µM
TGI (DU-145 prostate): 13.3 µM
GI50 (EKVX NSCLC): 0.857 µM
TGI (EKVX NSCLC): > 23.8 µM
GI50 (HCC-2998 colon): 2 µM
TGI (HCC-2998 colon): 13.6 µM
GI50 (HCT-116 colon): 1.71 µM
TGI (HCT-116 colon): 5.93 µM
GI50 (HCT-15 colon): 1.24 µM
TGI (HCT-15 colon): > 38.6 µM
GI50 (HL-60(TB) leukemia): 2.46 µM
TGI (HL-60(TB) leukemia): > 39.5 µM
GI50 (HOP-62 NSCLC): 1.09 µM
TGI (HOP-62 NSCLC): 9.82 µM
GI50 (HOP-92 NSCLC): 0.138 µM
TGI (HOP-92 NSCLC): 0.827 µM
GI50 (HS 578T breast): 0.422 µM
TGI (HS 578T breast): 2.84 µM
GI50 (HT29 colon): 1.63 µM
TGI (HT29 colon): 13.9 µM
GI50 (IGROV1 ovarian): 0.374 µM
TGI (IGROV1 ovarian): 2.4 µM
GI50 (K-562 leukemia): 2.16 µM
TGI (K-562 leukemia): > 100 µM
GI50 (KM12 colon): 1.75 µM
TGI (KM12 colon): 8.64 µM
GI50 (LOX IMVI melanoma): 0.915 µM
TGI (LOX IMVI melanoma): 5.85 µM
GI50 (M14 melanoma): 1.56 µM
TGI (M14 melanoma): 11.2 µM
GI50 (MALME-3M melanoma): 0.527 µM
TGI (MALME-3M melanoma): 3.79 µM
GI50 (MCF7 breast): 0.64 µM
TGI (MCF7 breast): > 35.3 µM
GI50 (MDA-MB-231 breast): 0.85 µM
TGI (MDA-MB-231 breast): 16.8 µM
GI50 (MDA-MB-435): 1.67 µM
TGI (MDA-MB-435): 9.57 µM
GI50 (MOLT-4 leukemia): 0.87 µM
TGI (MOLT-4 leukemia): 6.14 µM
GI50 (NCI-H226 lung): 1.53 µM
TGI (NCI-H226 lung): 16.6 µM
GI50 (NCI-H23 lung): 1.7 µM
TGI (NCI-H23 lung): 11 µM
GI50 (NCI-H460 lung): 0.987 µM
TGI (NCI-H460 lung): 11.6 µM
GI50 (NCI-H522 lung): 2.2 µM
TGI (NCI-H522 lung): 10.5 µM
GI50 (NCI/ADR-RES ovarian): 2.34 µM
TGI (NCI/ADR-RES ovarian): 28.3 µM
GI50 (OVCAR-4 ovarian): 0.527 µM
TGI (OVCAR-4 ovarian): 4.76 µM
GI50 (OVCAR-5 ovarian): 0.787 µM
TGI (OVCAR-5 ovarian): 13.6 µM
GI50 (OVCAR-8 ovarian): 1.72 µM
TGI (OVCAR-8 ovarian): 11.6 µM
GI50 (PC-3 prostate): 0.72 µM
TGI (PC-3 prostate): 10.6 µM
GI50 (RPMI-8226 leukemia): 0.382 µM
TGI (RPMI-8226 leukemia): 2.96 µM
GI50 (RXF 393 renal): 0.559 µM
TGI (RXF 393 renal): 3.9 µM
GI50 (SF-268 CNS): 1.24 µM
TGI (SF-268 CNS): 8.79 µM
GI50 (SF-295 CNS): 1.08 µM
TGI (SF-295 CNS): > 23.1 µM
GI50 (SF-539 CNS): 1.31 µM
TGI (SF-539 CNS): 5.98 µM
GI50 (SK-MEL-2 melanoma): 1.12 µM
TGI (SK-MEL-2 melanoma): 2.95 µM
GI50 (SK-MEL-28 melanoma): 1.59 µM
TGI (SK-MEL-28 melanoma): 8.97 µM
GI50 (SK-MEL-5 melanoma): 1.52 µM
TGI (SK-MEL-5 melanoma): 3.09 µM
GI50 (SK-OV-3 ovarian): 1.21 µM
TGI (SK-OV-3 ovarian): 5.72 µM
GI50 (SN12C renal): 0.765 µM
TGI (SN12C renal): 14.8 µM
GI50 (SNB-19 CNS): 1.59 µM
TGI (SNB-19 CNS): 20 µM
GI50 (SNB-75 CNS): 0.258 µM
TGI (SNB-75 CNS): 2.45 µM
GI50 (SR leukemia): 0.741 µM
TGI (SR leukemia): > 43.4 µM
GI50 (SW-620 colon): 2.62 µM
TGI (SW-620 colon): 12.2 µM
GI50 (T-47D breast): 0.446 µM
GI50 (TK-10 renal): 0.206 µM
TGI (TK-10 renal): 1.86 µM
GI50 (U251 CNS): 1.55 µM
TGI (U251 CNS): 11.2 µM
GI50 (UACC-257 melanoma): 2.11 µM
TGI (UACC-257 melanoma): 10.5 µM
GI50 (UACC-62 melanoma): 1.08 µM
TGI (UACC-62 melanoma): 4.53 µM
GI50 (UO-31 renal): 0.252 µM
TGI (UO-31 renal): 5.84 µM
